System: T. rubrum
Experiment: Demonstration of synergistic activity, CLSI Reference Method 38-A2, growth at combined dilutions
Format: cell-based, Trichophyton rubrum
Parameters: key to growth of T. rubrum: N=negative growth; P=positive growth
Details: for concentration at which negative growth was shown, individually: T. rubrum, tested individually
Description: This method is the gold standard used in measuring the antifungal susceptibility of filamentous fungi that cause invasive infections. Fungal colonies are grown on potato glucose agar (PGA). One colony is picked and grown in Sabouraud glucose broth (SGB) at 24° C. for 3 days in the presence of test compound. Microdilution trays are incubated at 24° C., and are read after 5 days of culture. Turbidity in the microdilution wells is scored with the aid of a reading mirror and compared with that of the growth control. A numerical score from 0 to 4 is given to each well using the following scale: 0=optically clear or absence of growth, 1=slight growth (25% of growth control), 2=prominent reduction in growth (50% of growth control), 3=slight reduction in growth (75% of growth control), 4=no reduction in growth.

In the case of O=C[O-].[Na+] [Formulation F12, sodium formate], the “growth of T. rubrum” value (F12 0.004X alone) is reported as “P 0.004X”, the “growth of T. rubrum” value (F12 0.007X alone) is reported as “P 0.007X” and the “growth of T. rubrum” value (F12 0.015X alone) is reported as “P 0.015X”. The “growth of T. rubrum” value (F12 0.03X alone) was “P 0.03X”, the “growth of T. rubrum” value (F12 0.06X alone) was “N 0.06X” and the “growth of T. rubrum” value (F12 0.125X alone) was “N 0.125X”. For the same molecule, the “growth of T. rubrum” value (F12 0.25X alone) was “N 0.25X” and the “concentration at which negative growth was shown, individually” value (from here on “concentration”) was 0.06 times the initial concentration.
For CCC(=O)[O-].CCC(=O)[O-].[Zn+2] [Formulation F9, zinc propionate], the “growth of T. rubrum” value (F9 0.004X alone) was “P 0.004X”, the “growth of T. rubrum” value (F9 0.007X alone) was “P 0.007X” and the “growth of T. rubrum” value (F9 0.015X alone) was “P 0.015X”. The “growth of T. rubrum” value (F9 0.03X alone) was “N 0.03X”, the “growth of T. rubrum” value (F9 0.06X alone) was “N 0.06X” and the “growth of T. rubrum” value (F9 0.125X alone) was “N 0.125X”. The “growth of T. rubrum” value (F9 0.25X alone) was “N 0.25X” and the “concentration” value was 0.03 times the initial concentration.
With CC(=O)[O-].[Na+] [Formulation F14, sodium acetate] the “growth of T. rubrum” value (F14 0.004X alone) was “P 0.004X”, the “growth of T. rubrum” value (F14 0.007X alone) was “P 0.007X” and the “growth of T. rubrum” value (F14 0.015X alone) was “P 0.015X”. For the same molecule, the “growth of T. rubrum” value (F14 0.03X alone) was “P 0.03X”, the “growth of T. rubrum” value (F14 0.06X alone) was “P 0.06X” and the “growth of T. rubrum” value (F14 0.125X alone) was “N 0.125X”. The “growth of T. rubrum” value (F14 0.25X alone) was “N 0.25X” and the “concentration” value was 0.125 times the initial concentration.
In the case of O=C([O-])c1ccccc1.[Na+] [Formulation F11, sodium benzoate], the “growth of T. rubrum” value (F11 0.004X alone) is reported as “P 0.004X”, the “growth of T. rubrum” value (F11 0.007X alone) is reported as “P 0.007X” and the “growth of T. rubrum” value (F11 0.015X alone) is reported as “P 0.015X”. For the same molecule, the “growth of T. rubrum” value (F11 0.03X alone) was “N 0.03X”, the “growth of T. rubrum” value (F11 0.06X alone) was “N 0.06X” and the “growth of T. rubrum” value (F11 0.125X alone) was “N 0.125X”. The “growth of T. rubrum” value (F11 0.25X alone) was “N 0.25X” and the “concentration” value was 0.03 times the initial concentration.

Reference: patent publication US20140142177A1, “TOPICAL ORGANIC ACID SALT COMPOSITIONS SUITABLE FOR TREATING INFECTIONS” (priority 2009, published 2014)
